Activity calls are given as the source filed them. The rule behind the calls is not given here.

The experiment is filed under the species Homo sapiens. The experiment can be described thus: Binding affinity to arylsulfatase assessed as fluorescence quenching at 10 uM at pH 7.5 after 1.5 hrs by fluorescence spectrophotometry.

Take `CN(C)c1cccc2c(S(=O)(=O)NCC(O)c3ccc(OS(=O)(=O)O)cc3)cccc12` (stereo unspecified): the result was inactive.

Source of the values: ChEMBL document CHEMBL2057079, “Activity-based fluorescent probes for monitoring sulfatase activity” (Bioorg Med Chem Lett, 2012).
